Reference: patent US9708336B2, “Metallo-beta-lactamase inhibitors” (priority 2014, dated 2017)
Where two headings read alike, the source gives them in different places.

How the values were obtained:
[1] = target: NDM-1 (Klebsiella pneumoniae, UniProt C7C422); test: biochemical; type: biochemical; conditions: read-out: NDM-1 IC50
[2] = target: VIM-1 (Pseudomonas aeruginosa (strain ATCC 15692 / DSM 22644 / CIP 104116 / JCM 14847 / LMG 12228 / 1C / PRS 101 / PAO1), UniProt A0A0F7KYQ8); test: Enzyme activity: determination of IC50, fluorescence assay with CCF2-FA substrate (VIM-1); type: biochemical
Description: Enzyme Activity: Determination of IC50
The Class B enzyme activities were measured in the presence of the test inhibitor in a fluorescence assay against a commercially available substrate consisting of a cephalosporin core linking 7-hydroxycoumarin to fluorescein (CCF2-FA). The enzyme (NDM-1, IMP-1 or VIM-1) and the substrate were diluted in 100 mM KH2PO4 buffer (pH 7) containing 0.005% Tween-20 and 10 μM ZnSO4. […] The test inhibitor was dissolved in dimethylsulfoxide and diluted 1:50 in the assay, resulting in a final concentration range of 20 uM to 0.00063 uM. In a 384-well microplate, the test inhibitor was incubated with the metallo-β-lactamase enzyme and the substrate for 2 hours at 25° C. Fluorescence at 460 nm following excitation at 405 nm was measured. The IC50 value was determined from semi-logarithmic plots of enzyme inhibition versus inhibitor concentration, with a curve generated using a 4-parameter fit.

[3] = system: Klebsiella pneumoniae expressing VIM-1 (IHMA599644); test: Antibiotic potentiation activity: synergistic concentration (MITC95) with imipenem, OD600 growth; type: cell-based
In short: (§1)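 CLB30005 was precultured on Mueller Hinton agar with 8 ug/ml imipenem, the other strains on trypticase soy agar with 5% sheep blood, overnight at 35 °C. Saline suspensions diluted 1:100 in 1.1× CAMHB received compound and 4 μg/ml imipenem, then 22–24 h at 35 °C before absorbance reading.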

[4] = system: Escherichia coli expressing NDM-1 (CLB30016); test: as above; type: cell-based
In short: as §1

[5] = system: Serratia marcescens expressing IMP-1 (CL5741); test: as above; type: cell-based
In short: as §1

[6] = target: IMP-1 (Serratia marcescens, UniProt P52699); test: biochemical; type: biochemical
IMP-1, sequence (P52699 whole entry, looked up): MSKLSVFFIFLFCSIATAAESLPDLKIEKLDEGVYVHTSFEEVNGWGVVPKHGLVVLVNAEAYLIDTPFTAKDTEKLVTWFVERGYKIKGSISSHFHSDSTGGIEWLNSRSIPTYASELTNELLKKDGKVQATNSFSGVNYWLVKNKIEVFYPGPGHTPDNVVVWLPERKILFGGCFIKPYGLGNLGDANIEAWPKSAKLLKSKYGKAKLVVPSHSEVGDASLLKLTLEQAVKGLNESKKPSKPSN

[7] = NDM-1 enzyme, CCF2-FA substrate
[8] = VIM-1 IC50, VIM-1 enzyme, CCF2-FA substrate
[9] = Klebsiella pneumoniae IHMA599644 (VIM-1), 95% growth inhibition
[10] = (CLB30016, NDM-1), 95% growth inhibition
[11] = Serratia marcescens CL5741 (IMP-1), 95% growth inhibition
[12] = IMP-1 enzyme, CCF2-FA substrate, read-out: IMP-1 IC50
[13] = fluorescence assay with CCF2-FA substrate
[14] = fluorescence assay with CCF2-FA substrate, read-out: VIM-1 IC50
[15] = concentration giving 95% inhibition of bacterial growth
[16] = fluorescence assay with CCF2-FA substrate, read-out: IMP-1 IC50
[17] = NDM-1 enzyme, CCF2-FA fluorescence assay
[18] = VIM-1 enzyme, CCF2-FA fluorescence assay, read-out: VIM-1 IC50
[19] = Klebsiella pneumoniae expressing VIM-1 (IHMA599644), 95% growth inhibition
[20] = Escherichia coli expressing NDM-1 (CLB30016), 95% growth inhibition
[21] = Serratia marcescens expressing IMP-1 (CL5741), 95% growth inhibition
[22] = IMP-1 enzyme, CCF2-FA fluorescence assay, read-out: IMP-1 IC50
[23] = VIM-1 enzyme, CCF2-FA substrate, read-out: VIM-1 IC50
[24] = IHMA599644 (VIM-1), 95% inhibition of bacterial growth
[25] = CLB30016 (NDM-1), 95% inhibition of bacterial growth
[26] = CL5741 (IMP-1), 95% inhibition of bacterial growth

NDM-1, sequence (C7C422 whole entry, looked up, species assumed): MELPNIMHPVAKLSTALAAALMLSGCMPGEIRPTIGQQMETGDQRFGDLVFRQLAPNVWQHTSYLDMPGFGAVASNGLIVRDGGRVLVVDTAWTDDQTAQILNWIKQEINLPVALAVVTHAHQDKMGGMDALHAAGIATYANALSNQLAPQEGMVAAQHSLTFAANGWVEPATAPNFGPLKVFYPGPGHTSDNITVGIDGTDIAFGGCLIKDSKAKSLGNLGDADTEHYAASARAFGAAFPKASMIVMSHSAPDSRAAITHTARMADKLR

CC(=O)NC1CCN(c2ccc(-c3cccc(S(N)(=O)=O)c3-c3nnn[nH]3)cn2)C1 (stereo not drawn) [Example 623, N-[1-[5-[3-sulfamoyl-2-(1H-tetrazol-5-yl)phenyl]-2-pyridyl]pyrrolidin-3-yl]acetamide]
IC50 [1, 7]: 7.94 nM
IC50 [2, 8]: 207 nM
Klebsiella pneumoniae MITC95 [3, 9]: 150 µM
Escherichia coli MITC95 [4, 10]: 1.953 µM
Serratia marcescens MITC95 [5, 11]: 6.25 µM
IC50 [6, 12]: 79.5 nM

NS(=O)(=O)c1cccc(CCc2ccccn2)c1-c1nnn[nH]1 [Example 144, 3-(2-pyridin-2-ylethyl)-2-(1H-tetrazol-5-yl)benzenesulfonamide]
IC50 [1, 13]: 121 nM
IC50 [2, 14]: 1540 nM
Klebsiella pneumoniae expressing VIM-1 (IHMA 599644) MITC95 [3, 15]: >200 µM
Escherichia coli expressing NDM-1 (CLB 30016) MITC95 [4, 15]: 3.125 µM
Serratia marcescens expressing IMP-1 (CL5741) MITC95 [5, 15]: 200 µM
IC50 [6, 16]: 4500 nM

NS(=O)(=O)c1cccc(-c2ccc(CN[C@H]3COC[C@@H]3O)cc2)c1-c1nnn[nH]1 [Example 365, 4′-({[(3S,4R)-4-hydroxytetrahydrofuran-3-yl]amino}methyl)-2-(1H-tetrazol-5-yl)biphenyl-3-sulfonamide]
IC50 [1, 17]: 5.37 nM
IC50 [2, 18]: 390 nM
Klebsiella pneumoniae MITC95 [3, 19]: 75 µM
Escherichia coli MITC95 [4, 20]: 1.563 µM
Serratia marcescens MITC95 [5, 21]: 2.344 µM
IC50 [6, 22]: 52.1 nM

NS(=O)(=O)c1c(C(F)(F)F)ccc(-c2ccc(N3CCC(O)CC3)cc2)c1-c1nnn[nH]1 [Example 740, 4′-(4-hydroxypiperidin-1-yl)-2-(1H-tetrazol-5-yl)-4-(trifluoromethyl)biphenyl-3-sulfonamide]
IC50 [1, 7]: 0.229 nM
IC50 [2, 23]: 1.15 nM
Klebsiella pneumoniae MITC95 [3, 9]: 50 µM
Escherichia coli MITC95 [4, 10]: 6.25 µM
Serratia marcescens MITC95 [5, 11]: 6.25 µM
IC50 [6, 12]: 0.456 nM

NS(=O)(=O)c1cccc(-c2ccc(CN3CCC(CCO)C3)cc2)c1-c1nnn[nH]1 (stereo not drawn) [Example 393, 4′-{[3-(2-hydroxyethyl)pyrrolidin-1-yl]methyl}-2-(1H-tetrazol-5-yl)biphenyl-3-sulfonamide]
IC50 [1, 17]: 10.8 nM
IC50 [2, 18]: 509 nM
Klebsiella pneumoniae MITC95 [3, 19]: 200 µM
Escherichia coli MITC95 [4, 20]: 1.563 µM
Serratia marcescens MITC95 [5, 21]: 4.688 µM
IC50 [6, 22]: 338 nM

CN(C)[C@@H]1CCN(Cc2ccc(-c3cccc(S(N)(=O)=O)c3-c3nnn[nH]3)cc2)C1 [Example 347, 4′-{[(3R)-3-(dimethylamino)pyrrolidin-1-yl]methyl}-2-(1H-tetrazol-5-yl)biphenyl-3-sulfonamide]
IC50 [1, 17]: 12.2 nM
IC50 [2, 18]: 844 nM
Klebsiella pneumoniae MITC95 [3, 19]: 200 µM
Escherichia coli MITC95 [4, 20]: 2.344 µM
Serratia marcescens MITC95 [5, 21]: 3.125 µM
IC50 [6, 22]: 185 nM

Nc1nc2cc(C(F)(F)F)cc(-c3ccc(C(F)(F)F)c(S(N)(=O)=O)c3-c3nnn[nH]3)c2[nH]1 [Example 567]
IC50 [1, 7]: 0.299 nM
IC50 [2, 23]: 0.225 nM
Klebsiella pneumoniae MITC95 [3, 9]: 6.25 µM
Escherichia coli MITC95 [4, 10]: 3.125 µM
Serratia marcescens MITC95 [5, 11]: 6.25 µM
IC50 [6, 12]: 3.77 nM

NC[C@H]1CC[C@@H](c2ccc(C(F)(F)F)c(S(N)(=O)=O)c2-c2nnn[nH]2)CC1 [Example 500, 3-(cis 4-(Aminomethyl)cyclohexyl)-2-(1H-tetrazol-5-yl)-6-(trifluoromethyl)benzenesulfonamide]
IC50 [1, 7]: 3.52 nM
IC50 [2, 23]: 12.2 nM
Klebsiella pneumoniae MITC95 [3, 9]: 31.25 µM
Escherichia coli MITC95 [4, 10]: 2.344 µM
Serratia marcescens MITC95 [5, 11]: 1.563 µM
IC50 [6]: 9.86 nM

NS(=O)(=O)c1cccc(-c2cccc3ccoc23)c1-c1nn[nH]n1 [Example 522, 3-(Benzofuran-7-yl)-2-(2H-tetrazol-5-yl)benzenesulfonamide]
IC50 [1, 7]: 3.4 nM
IC50 [2, 23]: 52.9 nM
Klebsiella pneumoniae MITC95 [3, 9]: 50 µM
Escherichia coli MITC95 [4, 10]: 2.344 µM
Serratia marcescens MITC95 [5, 11]: 18.75 µM
IC50 [6, 12]: 263 nM

NS(=O)(=O)c1cccc(C2CCCc3ncccc32)c1-c1nn[nH]n1 (stereo not drawn) [Example 519, 3-(5,6,7,8-Tetrahydroquinolin-5-yl)-2-(2H-tetrazol-5-yl)benzenesulfonamide]
IC50 [1, 7]: 3.78 nM
IC50 [2, 8]: 24.6 nM
Klebsiella pneumoniae MITC95 [3, 9]: 37.5 µM
Escherichia coli MITC95 [4, 10]: 1.563 µM
Serratia marcescens MITC95 [5, 11]: 100 µM
IC50 [6, 12]: 766 nM

NS(=O)(=O)c1c(C(F)(F)F)ccc(-c2ccc(C3CCN(C4CC5(CCNCC5)C4)CC3)cc2)c1-c1nnn[nH]1 [Example 797, 4′-[1-(7-azaspiro[3.5]non-2-yl)piperidin-4-yl]-2-(1H-tetrazol-5-yl)-4-(trifluoromethyl)biphenyl-3-sulfonamide]
IC50 [1, 13]: 5.57 nM
IC50 [2, 14]: 9.92 nM
Klebsiella pneumoniae MITC95 [3, 24]: 25 µM
Escherichia coli MITC95 [4, 25]: 3.125 µM
Serratia marcescens MITC95 [5, 26]: 3.125 µM
IC50 [6, 16]: 1.51 nM

NC1CCCC12CCN(c1ccc(C(F)(F)F)c(S(N)(=O)=O)c1-c1nnn[nH]1)CC2 (stereo not drawn) [Example 761, 3-(1-amino-8-azaspiro[4.5]dec-8-yl)-2-(1H-tetrazol-5-yl)-6-(trifluoromethyl) benzenesulfonamide]
IC50 [1, 13]: 46 nM
IC50 [2, 14]: 48.3 nM
Klebsiella pneumoniae MITC95 [3, 24]: >200 µM
Escherichia coli MITC95 [4, 25]: 100 µM
Serratia marcescens MITC95 [5, 26]: 100 µM
IC50 [6, 16]: 104 nM

C[N+](C)(C)CCN1CCC(c2ccc(-c3ccc(C(F)(F)F)c(S(N)(=O)=O)c3-c3nnn[nH]3)cc2)CC1 [Example 677, N,N,N-trimethyl-2-{4-[3′-sulfamoyl-2′-(1H-tetrazol-5-yl)-4′-(trifluoromethyl)biphenyl-4-yl]piperidin-1-yl}ethanaminium]
IC50 [1, 7]: 4.17 nM
IC50 [2, 23]: 19.4 nM
Klebsiella pneumoniae MITC95 [3, 9]: >200 µM
Escherichia coli MITC95 [4, 10]: 12.5 µM
Serratia marcescens MITC95 [5, 11]: 12.5 µM
IC50 [6, 12]: 0.541 nM

NCC1CCC(N[C@H]2CC[C@H](c3ccc(C(F)(F)F)c(S(N)(=O)=O)c3-c3nnn[nH]3)CC2)CC1 (stereo partly drawn) [Example 699, 3-(4-{[4-(aminomethyl)cyclohexyl]amino}cyclohexyl)-2-(1H-tetrazol-5-yl)-6-(trifluoromethyl)benzene sulfonamide]
IC50 [1, 7]: 18 nM
IC50 [2, 23]: 4.72 nM
Klebsiella pneumoniae MITC95 [3, 9]: 6.25 µM
Escherichia coli MITC95 [4, 10]: 3.125 µM
Serratia marcescens MITC95 [5, 11]: 6.25 µM
IC50 [6, 12]: 58.8 nM

NS(=O)(=O)c1c(C(F)(F)F)ccc(-c2cccc3c2CCNC3)c1-c1nn[nH]n1 [Example 517, 3-(1,2,3,4-Tetrahydroisoquinolin-5-yl)-2-(2H-tetrazol-5-yl)-6-(trifluoromethyl)benzenesulfonamide]
IC50 [1, 7]: 5.88 nM
IC50 [2, 23]: 0.937 nM
Klebsiella pneumoniae MITC95 [3, 9]: 1.563 µM
Escherichia coli MITC95 [4, 10]: 3.125 µM
Serratia marcescens MITC95 [5, 11]: 3.125 µM
IC50 [6, 12]: 37.2 nM

NS(=O)(=O)c1c(C(F)(F)F)ccc(N2CCC(N3CCNCC3)C2)c1-c1nnn[nH]1 (stereo not drawn) [Example 770, 3-(3-piperazin-1-ylpyrrolidin-1-yl)-2-(1H-tetrazol-5-yl)-6-(trifluoromethyl) benzenesulfonamide]
IC50 [1, 13]: 366 nM
IC50 [2, 14]: 7.51 nM
Klebsiella pneumoniae MITC95 [3, 24]: 3.125 µM
Escherichia coli MITC95 [4, 25]: 50 µM
Serratia marcescens MITC95 [5, 26]: 50 µM
IC50 [6, 16]: 251 nM

NCC1CN(C2CCN(c3ccc(C(F)(F)F)c(S(N)(=O)=O)c3-c3nnn[nH]3)CC2)C1 [Example 762, 3-{4-[3-(aminomethyl)azetidin-1-yl]piperidin-1-yl}-2-(1H-tetrazol-5-yl)-6-(trifluoromethyl) benzenesulfonamide]
IC50 [1, 13]: 73.2 nM
IC50 [2, 14]: 14.2 nM
Klebsiella pneumoniae MITC95 [3, 24]: 6.25 µM
Escherichia coli MITC95 [4, 25]: 3.125 µM
Serratia marcescens MITC95 [5, 26]: 6.25 µM
IC50 [6, 16]: 123 nM

NS(=O)(=O)c1nccc(-n2cnc3ccccc32)c1-c1nn[nH]n1 [Example 246, 4-(1H-benzo[d]imidazol-1-yl)-3-(2H-tetrazol-5-yl)pyridine-2-sulfonamide]
IC50 [1, 17]: 30.2 nM
IC50 [2, 18]: 78.3 nM
Klebsiella pneumoniae MITC95 [3, 19]: 12.5 µM
Escherichia coli MITC95 [4, 20]: 0.5859 µM
Serratia marcescens MITC95 [5, 21]: 150 µM
IC50 [6, 22]: 2800 nM

NS(=O)(=O)c1cccc(-c2ccc(CNCc3ccncn3)cc2)c1-c1nnn[nH]1 [Example 377, 4′-{[(pyrimidin-4-ylmethyl)amino]methyl}-2-(1H-tetrazol-5-yl)biphenyl-3-sulfonamide]
IC50 [1, 17]: 5.27 nM
IC50 ([2]; VIM-1 IC50, VIM-1 enzyme, CCF2-FA fluorescence assay): 256 nM
Klebsiella pneumoniae MITC95 [3, 19]: 200 µM
Escherichia coli MITC95 [4, 20]: 1.563 µM
Serratia marcescens MITC95 [5, 21]: 3.125 µM
IC50 [6, 22]: 73.7 nM
